No end group written: not given here.

Results on 1 substance are retold here after PMC11148045, “Structural basis for recognition of 26RFa by the pyroglutamylated RFamide peptide receptor” (Cell Discovery, 2024).

Assay in all cases: 26RFa-induced calcium mobilization, receptor mutants
What all share (format): cell-based

Test [1] deals with T1, QRFPR mutants (Homo sapiens, UniProt Q96P65, E203A).
T1 construct: expressed in transfected cells; host or cells: HEK293, transient transfection by electroporation
T1 sequence (Q96P65 whole entry E203A): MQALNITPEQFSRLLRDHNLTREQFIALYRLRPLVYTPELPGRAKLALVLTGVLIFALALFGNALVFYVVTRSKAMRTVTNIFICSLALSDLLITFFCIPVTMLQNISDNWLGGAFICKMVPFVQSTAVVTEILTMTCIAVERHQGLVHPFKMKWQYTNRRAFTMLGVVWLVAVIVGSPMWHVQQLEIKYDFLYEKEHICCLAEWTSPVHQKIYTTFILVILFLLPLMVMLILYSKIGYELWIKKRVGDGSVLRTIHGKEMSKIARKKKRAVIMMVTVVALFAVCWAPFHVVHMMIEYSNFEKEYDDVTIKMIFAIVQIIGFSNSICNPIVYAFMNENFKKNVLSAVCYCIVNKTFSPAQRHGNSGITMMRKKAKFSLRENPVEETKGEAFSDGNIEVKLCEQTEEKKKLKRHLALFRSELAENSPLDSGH
Here is the method:
(§1) The gene encoding the WT QRFPR, PrPRR, KISS1R, NPFF1R, or NPFF2R was subcloned into the pcDNA3.0 vector with the addition of an N-terminal HA tag. All of the mutations used for functional studies were generated by QuickChange PCR and verified by DNA sequencing.
(§2) HEK293 cells were obtained from ATCC (Manassas, VA, USA) and cultured in DMEM supplemented with 10% (v/v) FBS, 100 mg/L penicillin, and 100 mg/L streptomycin in 5% CO2 at 37 °C. For transient transfection, ~2.5 × 10^6 cells were mixed with 2 µg plasmids in 200 µL transfection buffer, and electroporation was carried out with a Scientz-2C electroporation apparatus (Scientz Biotech, Ningbo, China). The experiments were carried out 24 h after transfection.
(§3) For QRFPR, PrRPR, and KISS1R, HEK293 cells transfected with WT receptor or its mutants were seeded at a density of 4 × 10^4 per well into 96-well culture plates and incubated for 24 h at 37 °C in 5% CO2. For NPFF1R and NPFF2R, plasmids were transfected into HEK293 cells stably expressing Gα16. On the next day, cells were incubated with 2 μmol/L Fluo-4 AM in HBSS supplemented with 5.6 mmol/L D-glucose and 250 μmol/L sulfinpyrazone at 37 °C for 45 min. After washing, cells were added with 50 μL HBSS and incubated at room temperature for 10 min, then 25 μL agonist buffer was dispensed into the well using a FlexStation III microplate reader (Molecular Devices), and intracellular calcium change was recorded at an excitation wavelength of 485 nm and an emission wavelength of 525 nm. EC50 and Emax values for each curve were calculated by Prism 8.0 software (GraphPad Software).

Test [2] deals with T2, QRFPR mutants (Homo sapiens, UniProt Q96P65, C118A).
T2 construct: expressed in transfected cells; host or cells: HEK293, transient transfection by electroporation
T2 sequence (Q96P65 whole entry C118A): as the sequence (Q96P65 whole entry E203A) above, with C118A, A203E counted along it
The note with it: HEK293, QRFPR C118^3.25A; HEK293, Fluo-4; mean ± S.E.M., n ≥ 3. Here is the method:
as §1, §2, §3

Test [3] has as its target T3, QRFPR mutants (Homo sapiens, UniProt Q96P65, Y214A).
T3 construct: expressed in transfected cells; host or cells: HEK293, transient transfection by electroporation
The note with it: HEK293, QRFPR Y214^5.38A; HEK293, Fluo-4; mean ± S.E.M., n ≥ 3. Here is the method:
as §1, §2, §3

In test [4] the target is T4, QRFPR mutants (Homo sapiens, UniProt Q96P65, L104A).
T4 construct: expressed in transfected cells; host or cells: HEK293, transient transfection by electroporation
T4 sequence (Q96P65 whole entry L104A): as the sequence (Q96P65 whole entry E203A) above, with L104A, A203E counted along it
The note with it: HEK293, QRFPR L104^2.62A; HEK293, Fluo-4; mean ± S.E.M., n ≥ 3. The protocol: as §1, §2, §3

Test [5] deals with T5, QRFPR mutants (Homo sapiens, UniProt Q96P65, W286A).
T5 construct: expressed in transfected cells; host or cells: HEK293, transient transfection by electroporation
T5 sequence (Q96P65 whole entry W286A): as the sequence (Q96P65 whole entry E203A) above, with A203E, W286A counted along it
The note with it: HEK293, QRFPR W286^6.48A; HEK293, Fluo-4; mean ± S.E.M., n ≥ 3. The protocol:
as §1, §2, §3

In test [6] the target is T6, QRFPR mutants (Homo sapiens, UniProt Q96P65, F289L).
T6 construct: expressed in transfected cells; host or cells: HEK293, transient transfection by electroporation
T6 sequence (Q96P65 whole entry F289L): as the sequence (Q96P65 whole entry E203A) above, with A203E, F289L counted along it
Here is the method: as §1, §2, §3

The target of test [7] is T7, QRFPR mutants (Homo sapiens, UniProt Q96P65, F289A).
T7 construct: expressed in transfected cells; host or cells: HEK293, transient transfection by electroporation
T7 sequence (Q96P65 whole entry F289A): as the sequence (Q96P65 whole entry E203A) above, with A203E, F289A counted along it
The protocol: as §1, §2, §3

Test [8] deals with T8, QRFPR mutants (Homo sapiens, UniProt Q96P65, C98A).
T8 construct: expressed in transfected cells; host or cells: HEK293, transient transfection by electroporation
T8 sequence (Q96P65 whole entry C98A): as the sequence (Q96P65 whole entry E203A) above, with C98A, A203E counted along it
To be noted: HEK293, QRFPR C98^2.57A; HEK293, Fluo-4; mean ± S.E.M., n ≥ 3. Here is the method:
as §1, §2, §3

Test [9] addresses T9, QRFPR mutants (Homo sapiens, UniProt Q96P65, V129A).
T9 construct: expressed in transfected cells; host or cells: HEK293, transient transfection by electroporation
The note with it: HEK293, QRFPR V129^3.36A; HEK293, Fluo-4; mean ± S.E.M., n ≥ 3. The protocol: as §1, §2, §3

The target in test [10] is T10, QRFPR mutants (Homo sapiens, UniProt Q96P65, D307A).
T10 construct: expressed in transfected cells; host or cells: HEK293, transient transfection by electroporation
T10 sequence (Q96P65 whole entry D307A): as the sequence (Q96P65 whole entry E203A) above, with A203E, D307A counted along it
To be noted: HEK293, QRFPR D307^7.27A; HEK293, Fluo-4; mean ± S.E.M., n ≥ 3. Here is the method: as §1, §2, §3

Test [11] has as its target T11, QRFPR mutants (Homo sapiens, UniProt Q96P65, S126A).
T11 construct: expressed in transfected cells; host or cells: HEK293, transient transfection by electroporation
To be noted: HEK293, QRFPR S126^3.33A; HEK293, Fluo-4; mean ± S.E.M., n ≥ 3. The protocol: as §1, §2, §3

Test [12] deals with T12, QRFPR mutants (Homo sapiens, UniProt Q96P65, Q105A).
T12 construct: expressed in transfected cells; host or cells: HEK293, transient transfection by electroporation
T12 sequence (Q96P65 whole entry Q105A): as the sequence (Q96P65 whole entry E203A) above, with Q105A, A203E counted along it
The note with it: HEK293, QRFPR Q105^2.63A; HEK293, Fluo-4; mean ± S.E.M., n ≥ 3. The protocol: as §1, §2, §3

Test [13] deals with T13, QRFPR mutants (Homo sapiens, UniProt Q96P65, S108A).
T13 construct: expressed in transfected cells; host or cells: HEK293, transient transfection by electroporation
T13 sequence (Q96P65 whole entry S108A): as the sequence (Q96P65 whole entry E203A) above, with S108A, A203E counted along it
The note with it: HEK293, QRFPR S108^2.65A; HEK293, Fluo-4; mean ± S.E.M., n ≥ 3. Here is the method: as §1, §2, §3

The target of test [14] is T14, QRFPR mutants (Homo sapiens, UniProt Q96P65, N110A).
T14 construct: expressed in transfected cells; host or cells: HEK293, transient transfection by electroporation
T14 sequence (Q96P65 whole entry N110A): as the sequence (Q96P65 whole entry E203A) above, with N110A, A203E counted along it
To be noted: HEK293, QRFPR N110^23.49A; HEK293, Fluo-4; mean ± S.E.M., n ≥ 3. Here is the method:
as §1, §2, §3

Test [15] deals with T15, QRFPR mutants (Homo sapiens, UniProt Q96P65, F192A).
T15 construct: expressed in transfected cells; host or cells: HEK293, transient transfection by electroporation
T15 sequence (Q96P65 whole entry F192A): as the sequence (Q96P65 whole entry E203A) above, with F192A, A203E counted along it
The note with it: HEK293, QRFPR F192^ECL2A; HEK293, Fluo-4; mean ± S.E.M., n ≥ 3. The protocol: as §1, §2, §3

For test [16], the target named is T16, QRFPR mutants (Homo sapiens, UniProt Q96P65, V121A).
T16 construct: expressed in transfected cells; host or cells: HEK293, transient transfection by electroporation
T16 sequence (Q96P65 whole entry V121A): as the sequence (Q96P65 whole entry E203A) above, with V121A, A203E counted along it
The note with it: HEK293, QRFPR V121^3.28A; HEK293, Fluo-4; mean ± S.E.M., n ≥ 3. The protocol: as §1, §2, §3

Test [17] has as its target T17, QRFPR mutants (Homo sapiens, UniProt Q96P65, K189A).
T17 construct: expressed in transfected cells; host or cells: HEK293, transient transfection by electroporation
The note with it: HEK293, QRFPR K189^ECL2A; HEK293, Fluo-4; mean ± S.E.M., n ≥ 3. Here is the method:
as §1, §2, §3

Test [18] concerns the target T18, QRFPR mutants (Homo sapiens, UniProt Q96P65, L193A).
T18 construct: expressed in transfected cells; host or cells: HEK293, transient transfection by electroporation
The protocol: as §1, §2, §3

T18 sequence (Q96P65 whole entry L193A): as the sequence (Q96P65 whole entry E203A) above, with L193A, A203E counted along it
T17 sequence (Q96P65 whole entry K189A): as the sequence (Q96P65 whole entry E203A) above, with K189A, A203E counted along it
T9 sequence (Q96P65 whole entry V129A): as the sequence (Q96P65 whole entry E203A) above, with V129A, A203E counted along it
T11 sequence (Q96P65 whole entry S126A): as the sequence (Q96P65 whole entry E203A) above, with S126A, A203E counted along it
T3 sequence (Q96P65 whole entry Y214A): as the sequence (Q96P65 whole entry E203A) above, with A203E, Y214A counted along it

In the case of ASGPLGTLAEELSSYSRRKGGFSFRF-NH2 [26RFa], in test [1] (26RFa, QRFPR), the “effect of E^45.52 to alanine” value was “remarkable decline of activity or potency”. The Emax in test [1] (HEK293, QRFPR E203^45.52A, HEK293, Fluo-4, mean ± S.E.M., n ≥ 3) came out at 96.9 ± 0.64%; in [2] it was 1.43 ± 0.55%; in test [3], 1.42 ± 0.7%; in [4], 109 ± 0.69%; in [5] it was 1.8 ± 0.38%; in [6] (HEK293, QRFPR F289^6.51L, HEK293, Fluo-4, mean ± S.E.M., n ≥ 3), 112 ± 5.1%. The maximal effect (Emax) stood at 54.4 ± 1.4% in test [7] (HEK293, QRFPR F289^6.51A, HEK293, Fluo-4, mean ± S.E.M., n ≥ 3); 48.4 ± 0.88% in [8]; 42.7 ± 0.71% in [9]; 106 ± 0.64% in [10]; 92.3 ± 4.1% in test [11]; 83.8 ± 3.1% in [12]. In addition, the Emax was 51.7 ± 0.73% in [13]; 98.6 ± 2.3% in [14]; 87.4 ± 0.93% in [15]; 106 ± 5.4% in test [16]; 94.9 ± 1.6% in test [17]; 66.8 ± 0.54% in test [18] (HEK293, QRFPR L193^ECL2A, HEK293, Fluo-4, mean ± S.E.M., n ≥ 3). Besides, the “effect of mutation on 26RFa activity” value is on record as “did not impact the 26RFa activity” in [6] (QRFPR F289^6.51 to leucine) and “dramatic decrease in the activity of 26RFa” in [7] (QRFPR F289^6.51 to alanine). The “effect of mutation on peptide activity” value in test [18] (QRFPR L193A) is listed as “remarkable decline in peptide activity”.
